Where a name gives a salt, the structure may show the parent alone.
System: Lamin A/C depleted (siLMNA) U2OS cells
Assay: Nuclear shape rescue (DAPI staining, nuclear circularity) in Lamin A/C depleted cells
Type: cell-based, human
Settings: for increase in potency compared to Compound 2 (dose-dependent nuclear shape rescue): DAPI staining; for nuclear shape / nuclear circularity rescue: 16 hours, Compound 2 and 3 50 μM, MB-3 5 μM, FTI 5 μM, nocodazole 200 ng/ml, colchicine 1 μg/ml, latrunculin A 1 μM
Experimental: U2OS and SaOS-2 osteosarcoma cells, HeLa cervical cancer cells, A431 melanoma cells, NCI-SNU5 gastric cancer cells, MRC-5 lung fibroblast cells and Werner syndrome patient-derived SV40 fibroblast cells were grown in Dulbecco's modified Eagle medium (DMEM, Sigma-Aldrich) supplemented with 10% fetal bovine serum (BioSera), 2 mM L-glutamine, 100 U per ml penicillin, 100 μg ml^−1 streptomycin. Normal skin primary fibroblasts GM03440 and Hutchinson Gilford Progeria Syndrome (HGPS) skin primary fibroblasts AG11498 and AG06297 were purchased from Coriell Cell Repositories and used between passage number 9-12 and 20-23 respectively. Cells were grown in DMEM supplemented as above. RPE-1 retinal pigment epithelial cells were grown in DMEM and Ham F12 mix medium supplemented as above and buffered with sodium bicarbonate. HMV-II melanoma cell line, 22RV1 prostate carcinoma cells, NCI-H82 and NCI-H69 lung carcinoma cells, and NCI-N87 gastric cancer cell lines were grown in RPMI-1640 medium (Sigma-Aldrich) supplemented as above. Stably transfected U2OS cells were maintained in standard medium containing 1 mg ml^−1 G418 (Invitrogen). The siRNA duplexes were obtained from Life Sciences: Lamin A/C stealth RNAi: […] (SEQ ID NO: 1) and […] (SEQ ID NO: 2), NAT10 stealth RNAi: […] (SEQ ID NO: 3), and as control siRNA, stealth RNAi negative control duplexes were used. Plasmid DNA and siRNA transfections were carried out using Lipofectamine 2000 and Lipofectamine RNAiMax (Life Sciences) respectively, following the manufacturer's instructions. Cells were analysed 48 to 72 hours after transfection.
The following KAT and KDAC inhibitors were used in the nuclear shape rescue screen, incubating cells with the molecules for 16 hours: trichostatin A (1 μM), sodium butyrate (5 mM), tubacin (10 μM), SAHA (5 μM), curcumin (10 μM), garcinol (50 μM), anacardic acid (1 μM), MB-3 (5 μM), 4-(4-chlorophenyl)-2-(2-cyclopentylidenehydrazinyl)thiazole (Compound 2) (50 μM), 4-(4-chlorophenyl)-2-(2-cyclopentylidene-1-(prop-2-yn-1-yl)hydrazinyl)thiazole (Compound 3) (50 μM) and cyclopentylidene-[4-(4-cyanophenyl)thiazol-2-yl)hydrazine (Compound 1) (Remodelin) (10 to 50 μM). For HGPS cellular fitness assays, Remodelin was incubated at 1 μM for 1 to 10 days, renewing the medium every 3 days. For long-term senescence assay, cells were kept and passaged in medium containing 1 μM Remodelin or DMSO only for 12 population doublings. Senescence was assessed after 8 days of Remodelin treatment when cells were at Population Doubling 12, and then after several weeks of Remodelin treatment, when cells reached Population Doubling 24 using the Senescence β-Galactosidase Staining Kit #9860 from Cell Signaling. Nocodazole, colchicine and latrunculin A (Sigma-Aldrich) were used at 200 ng/ml, 1 μg/ml and 1 μM respectively. Aphidicolin (Sigma-Aldrich) was used at 5 μg/ml for 16 h. Farnesyltransferase inhibitor FTI-277 was purchased from Tocris Bioscience and used at 5 μM. ATMi (KU55933) and ATRi (ATR-45) were obtained from Tocris Bioscience and from the Ohio State University respectively and used at 10 μM and 500 nM. Pifithrin alpha (Sigma-Aldrich) was used at 10 μM.
CellProfiler software was used to quantify nuclear circularity and nuclear area from DAPI staining pictures, using the “object size shape” measurement. The AreaShape measurement allowed the calculation of the Form Factor index ([…]) corresponding to circularity (a Form Factor of 1 reflecting a perfect circle), as well as the calculation of nuclear Area.
Lamin A/C was depleted by siRNA in U2OS cells (siLMNA) to induce misshapen nuclei. Cells were then treated for 16 h with various analogues of Compound 2 and nuclear shape rescue was analysed by DAPI staining. The results are shown in FIG. 18 and FIG. 19 which display the structures of the tested molecules and their ability to rescue nuclear shape.

| Structure (SMILES) | increase in potency compared to Compound 2 (dose-dependent nuclear shape rescue) | increase in potency compared to Compound 2 (dose-dependent nuclear shape rescue) (listed as Remodelin) [fold] | nuclear shape / nuclear circularity rescue |
| --- | --- | --- | --- |
| N#Cc1ccc(-c2csc(NN=C3CCCC3)n2)cc1 [Compound 1, 4-(4-Cyanophenyl)-2-(2-cyclopentylidenehydrazinyl)thiazole] | five-fold | ~5 | – |
| Clc1ccc(-c2csc(NN=C3CCCC3)n2)cc1 [Compound 2, 4-(4-Chlorophenyl)-2-(2-cyclopentylidenehydrazinyl)thiazole Hydrochloride Salt] | – | – | completely restoring nuclear shape and circularity |
| C#CCN(N=C1CCCC1)c1nc(-c2ccc(Cl)cc2)cs1 [Compound 3, 4-(4-Chlorophenyl)-2-(2-cyclopentylidene-1-(prop-2-yn-1-yl)hydrazinyl)thiazole] | – | – | equivalent cellular activity as Compound 2 |
